In US20060270871A1, “P[…] I OF […] PROCESSES FOR ITS PREPARATION” (priority 2005, published 2006):
Read-outs that look alike come from different tables or passages of the source.

Legend:
[1] = relative to (S)-(+)-pregabalin, type of activity not specified, cited from earlier work
[2] = hygroscopicity of anhydrous pregabalin; assay type: physicochemical; conditions: moisture content less than about 0.3% w/w
[3] = accelerated stability testing; conditions: anhydrous pregabalin, moisture content less than about 0.3% w/w

| SMILES | times less active when compared with the (S)-(+)-enantiomer [1] | times less active when compared with the (S)-(+)-enantiomer ([1]; listed as (R)-(−)-enantiomer) [times] | hygroscopicity [2] | stability during the accelerated stability testing [3] |
| --- | --- | --- | --- | --- |
| CC(C)C[C@@H](CN)CC(=O)O (single isomer, unassigned) [(R)-(−)-enantiomer of pregabalin] | about 40 times | 40 | – | – |
| CC(C)CC(CN)CC(=O)O (stereo in doubt) [anhydrous pregabalin, (S)-(+)-3-aminomethyl-5-methyl-1-hexanoic acid] | – | – | non-hygroscopic | stable |
